The values below come from BindingDB's records for patent US12180196 (Hoffmann-La Roche, 2024).

In the test the target is Cannabinoid receptor 2 (Homo sapiens, UniProt P34972). Put plainly: Radioligand Binding Assay. As to the method: The affinity of the compounds of the invention for cannabinoid CB1 receptors was determined using recommended amounts of membrane preparations (PerkinElmer) of human embryonic kidney (HEK) cells expressing the human CNR1 or CNR2 receptors in conjunction with 1.5 or 2.6 nM [3H]-CP-55,940 (Perkin Elmer) as radioligand, respectively. Binding was performed in binding buffer (50 mM Tris, 5 mM MgCl2, 2.5 mM EDTA, and 0.5% (wt/vol) fatty acid free BSA, pH 7.4 for CB1 receptor and 50 mM Tris, 5 mM MgCl2, 2.5 mM EGTA, and 0.1% (wt/vol) fatty acid free BSA, pH 7.4 for CB2 receptor) in a total volume of 0.2 ml for 1 h at 30° C. shaking. The reaction was terminated by rapid filtration through microfiltration plates coated with 0.5% polyethylenimine (UniFilter GF/B filter plate; Packard). Bound radioactivity was analyzed for Ki using nonlinear regression analysis (Activity Base, ID Business Solution, Limited), with the Kd values for [3H]CP55,940 determined from saturation experiments. The compounds of formula (I) show an excellent affinity for the CB2 receptor.
Cannabinoid receptor 2, sequence (P34972 whole entry): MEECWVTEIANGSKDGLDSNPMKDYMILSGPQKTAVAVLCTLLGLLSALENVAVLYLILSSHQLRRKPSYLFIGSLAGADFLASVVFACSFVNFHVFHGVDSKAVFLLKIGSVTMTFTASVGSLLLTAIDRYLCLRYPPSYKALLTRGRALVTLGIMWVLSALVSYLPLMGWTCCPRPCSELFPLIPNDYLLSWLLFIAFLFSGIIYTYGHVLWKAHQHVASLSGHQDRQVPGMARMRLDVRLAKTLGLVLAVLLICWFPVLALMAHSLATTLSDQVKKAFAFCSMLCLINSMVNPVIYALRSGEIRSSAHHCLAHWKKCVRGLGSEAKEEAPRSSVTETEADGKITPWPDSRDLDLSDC

The term Ki denotes a dissociation constant, usually derived from enzyme kinetics or from competition with a known ligand. A high value points to lower affinity. `CCOC(=O)C(CC)(CC)NC(=O)c1ccc(N2CC(OCF)C2)c(OCC2CC2)n1` [US12180196, Example 3] came in with an inhibition constant Ki of 14 nM.
